Laboratory results from patent US11046662B2, “2-aryl-4-hydroxy-1,3-thiazole derivatives useful as TRPM8-inhibitors in treatment of neuralgia, pain, COPD and asthma” (DOMPÉ FARMACEUTICI S.P.A., priority 2014, dated 2021).

How the values were obtained:
[1] = Plasma Protein Binding, human; assay type: in vitro ADME
[2] = target: human Serotoninergic 5-HT1A (Homo sapiens (Human), UniProt P08908); assay: GPCR radioligand binding assay; conditions: tested at 10 μM in duplicate
human Cannabinoid CB2 = human Cannabinoid CB2 (Homo sapiens (Human), UniProt P34972); assay: GPCR radioligand binding assay; conditions: tested at 10 μM in duplicate
human Adrenergic β1 = human Adrenergic β1 (Homo sapiens (Human), UniProt P08588); assay: GPCR radioligand binding assay; conditions: tested at 10 μM in duplicate
hERG channel = hERG channel (Homo sapiens (Human), UniProt Q12809); assay: hERG inhibition
CYP2D6 = CYP2D6 (Homo sapiens (Human), UniProt P10635); assay: CYP450 Inhibition; assay type: in vitro ADME; conditions: at 10 μM
human Opioid K (KOP) = human Opioid K (KOP) (Homo sapiens (Human), UniProt P41145); assay: GPCR radioligand binding assay; conditions: tested at 10 μM in duplicate
cold allodynia = assay: Chronic constriction model of pain, cold allodynia (drop of acetone); assay type: in vivo, male Sprague-Dawley rats; conditions: oral 10 mg/kg
Protocol: (§1) Neuropathic pain behavior will be induced by ligation of the sciatic nerve according to the method described by Bennett G J et al., Pain. 33: 87-107, 1988. Briefly, male Sprague-Dawley rats will be anaesthetized (100 mg/kg ketamine and 10 mg/kg xylazine i.p.) and the left sciatic nerve will be exposed at the level of the thigh by blunt dissection through the biceps femoris. Proximal to the sciatic's trifurcation, about 12 mm of nerve will be freed of adhering tissue and four ligatures will be loosely tied around it with about 1 mm spacing so that the epineural circulation will be preserved. The length of nerve thus affected was 6-8 mm long. The animals will be allowed to recover and used the day after the surgery. Sham animals represent rats operated but not ligated.
(§2) All data were presented as the mean±SEM. Analysis of data was conducted using GraphPad Prism 4.01. Statistical analysis was performed by two-way ANOVA followed by Dunnett's test for multiple comparisons, as appropriate. Statistical significance was set at p<0.05.

CYP1A2 = CYP1A2 (Homo sapiens (Human), UniProt P05177); assay: CYP450 Inhibition; assay type: in vitro ADME; conditions: at 10 μM
human Dopamine D2S = human Dopamine D2S (Homo sapiens (Human), UniProt P14416); assay: GPCR radioligand binding assay; conditions: tested at 10 μM in duplicate
human TRPM8 = human TRPM8 (Homo sapiens (Human), UniProt Q7Z2W7); assay: HTS cellular-based calcium assay for human TRPM8 antagonists (FLIPR TETRA); conditions: HEK293/hTRPM8 cells, agonist Cooling Agent 10 at EC80, Ca2+ fluorescence
[3] = Plasma Protein Binding, rat; assay type: in vitro ADME
TRPV1 = TRPV1 (Homo sapiens (Human), UniProt Q8NER1); assay: TRPV1 antagonist calcium influx assay; assay type: cell-based; conditions: agonist capsaicin = 100%, ruthenium red = 0
Excerpt: The signal elicited in the presence of the positive control agonist (capsaicin) was set to 100% and the signal in the presence of the antagonist (ruthenium red) was set to 0. […] The signal elicited in the presence of the positive control agonist (GSK1016790A) was set to 100% and the signal in the presence of the antagonist (ruthenium red) was set to 0. […] The signal elicited in the presence of the positive control agonist (allyl isothiocyanate, AITC) was set to 100% and the signal in the presence of the antagonist (ruthenium red) was set to 0.

human Adrenergic β2 = human Adrenergic β2 (Homo sapiens (Human), UniProt P07550); assay: GPCR radioligand binding assay; conditions: tested at 10 μM in duplicate
human NK1 = human NK1 (Homo sapiens (Human), UniProt P25103); assay: GPCR radioligand binding assay; conditions: tested at 10 μM in duplicate
[4] = Pharmacokinetic profile, intravenous and oral administration; assay type: in vivo
Protocol: The ADME properties and the pharmacokinetic profile of compound 2 were evaluated.

mechanical allodynia = assay: Chronic constriction model of pain, mechanical allodynia (Dynamic Plantar Aesthesiometer); assay type: in vivo, male Sprague-Dawley rats; conditions: oral 10 mg/kg
Protocol: as §1, §2

CYP3A4 = CYP3A4 (Homo sapiens (Human), UniProt P08684); assay: CYP450 Inhibition; assay type: in vitro ADME; conditions: at 10 μM
human Histamine H2 = human Histamine H2 (Homo sapiens (Human), UniProt P25021); assay: GPCR radioligand binding assay; conditions: tested at 10 μM in duplicate
CLint (rat) = assay type: in vitro ADME
human Muscarinic M3 = human Muscarinic M3 (Homo sapiens (Human), UniProt P20309); assay: GPCR radioligand binding assay; conditions: tested at 10 μM in duplicate
human Histamine H1 = human Histamine H1 (Homo sapiens (Human), UniProt P35367); assay: GPCR radioligand binding assay; conditions: tested at 10 μM in duplicate
human Opioid NOP (ORL1) = human Opioid NOP (ORL1) (Homo sapiens (Human), UniProt P41146); assay: GPCR radioligand binding assay; conditions: tested at 10 μM in duplicate
human Bradykinin B1 = human Bradykinin B1 (Homo sapiens (Human), UniProt P46663); assay: GPCR radioligand binding assay; conditions: tested at 10 μM in duplicate
human cytochrome isoform = assay: Effect towards human cytochrome isoforms; assay type: in vitro ADME; conditions: at the maximal concentration of 10 μM
human Adrenergic α1A = human Adrenergic α1A (Homo sapiens (Human), UniProt P35348); assay: GPCR radioligand binding assay; conditions: tested at 10 μM in duplicate
human Cannabinoid CB1 = human Cannabinoid CB1 (Homo sapiens (Human), UniProt P21554); assay: GPCR radioligand binding assay; conditions: tested at 10 μM in duplicate
human Opioid δ2 (DOP) = human Opioid δ2 (DOP) (Homo sapiens (Human), UniProt P41143); assay: GPCR radioligand binding assay; conditions: tested at 10 μM in duplicate
human Muscarinic M2 = human Muscarinic M2 (Homo sapiens (Human), UniProt P08172); assay: GPCR radioligand binding assay; conditions: tested at 10 μM in duplicate
CYP2C9 = CYP2C9 (Homo sapiens (Human), UniProt P11712); assay: CYP450 Inhibition; assay type: in vitro ADME; conditions: at 10 μM
human Opioid μ (MOP) = human Opioid μ (MOP) (Homo sapiens (Human), UniProt P35372); assay: GPCR radioligand binding assay; conditions: tested at 10 μM in duplicate
human Adrenergic α2A = human Adrenergic α2A (Homo sapiens (Human), UniProt P08913); assay: GPCR radioligand binding assay; conditions: tested at 10 μM in duplicate
Rat Plasma Stability = assay type: in vitro ADME
human Dopamine D3 = human Dopamine D3 (Homo sapiens (Human), UniProt P35462); assay: GPCR radioligand binding assay; conditions: tested at 10 μM in duplicate
CYP2C19 = CYP2C19 (Homo sapiens (Human), UniProt P33261); assay: CYP450 Inhibition; assay type: in vitro ADME; conditions: at 10 μM
human Bradykinin B2 = human Bradykinin B2 (Homo sapiens (Human), UniProt P30411); assay: GPCR radioligand binding assay; conditions: tested at 10 μM in duplicate
[5] = day 7 and day 14, 3 hours and 5 hours post-dose
[6] = day 7 and day 14 after nerve injury, 3 hours after treatment
[7] = oral administration, PO 10 mg/kg
[8] = plasma, intravenous administration, IV 5 mg/kg
[9] = plasma, oral administration, PO 10 mg/kg

Chain of hERG channel (Q12809 whole entry): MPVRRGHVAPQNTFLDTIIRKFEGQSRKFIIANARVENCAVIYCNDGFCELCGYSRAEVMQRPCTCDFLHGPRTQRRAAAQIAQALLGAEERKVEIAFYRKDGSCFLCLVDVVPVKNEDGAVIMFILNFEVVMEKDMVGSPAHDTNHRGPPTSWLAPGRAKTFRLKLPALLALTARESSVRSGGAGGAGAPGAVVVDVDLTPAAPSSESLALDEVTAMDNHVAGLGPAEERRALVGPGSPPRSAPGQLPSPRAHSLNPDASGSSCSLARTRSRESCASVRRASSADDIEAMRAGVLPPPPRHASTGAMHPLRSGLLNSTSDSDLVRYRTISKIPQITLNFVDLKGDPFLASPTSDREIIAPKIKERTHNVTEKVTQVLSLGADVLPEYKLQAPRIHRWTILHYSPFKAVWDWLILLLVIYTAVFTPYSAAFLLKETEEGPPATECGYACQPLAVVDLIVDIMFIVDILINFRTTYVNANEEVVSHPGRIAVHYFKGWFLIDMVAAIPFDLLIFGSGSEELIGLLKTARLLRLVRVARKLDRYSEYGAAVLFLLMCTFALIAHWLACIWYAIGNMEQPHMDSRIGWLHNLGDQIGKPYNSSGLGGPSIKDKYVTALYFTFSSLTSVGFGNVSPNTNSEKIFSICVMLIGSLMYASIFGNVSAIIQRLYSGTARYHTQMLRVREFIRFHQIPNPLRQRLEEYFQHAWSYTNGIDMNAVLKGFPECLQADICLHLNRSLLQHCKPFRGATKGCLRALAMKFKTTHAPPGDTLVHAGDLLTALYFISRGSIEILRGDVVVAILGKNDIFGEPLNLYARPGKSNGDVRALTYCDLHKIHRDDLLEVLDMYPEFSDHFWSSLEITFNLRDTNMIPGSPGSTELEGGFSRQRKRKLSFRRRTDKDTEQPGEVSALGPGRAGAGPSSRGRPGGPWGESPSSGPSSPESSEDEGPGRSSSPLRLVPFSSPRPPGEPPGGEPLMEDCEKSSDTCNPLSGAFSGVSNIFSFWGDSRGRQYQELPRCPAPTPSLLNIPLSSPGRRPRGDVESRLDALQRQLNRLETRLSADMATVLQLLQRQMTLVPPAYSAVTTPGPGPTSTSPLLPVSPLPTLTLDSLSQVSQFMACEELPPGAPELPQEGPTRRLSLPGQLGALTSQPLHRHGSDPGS
Chain of human Adrenergic β2 (P07550 whole entry): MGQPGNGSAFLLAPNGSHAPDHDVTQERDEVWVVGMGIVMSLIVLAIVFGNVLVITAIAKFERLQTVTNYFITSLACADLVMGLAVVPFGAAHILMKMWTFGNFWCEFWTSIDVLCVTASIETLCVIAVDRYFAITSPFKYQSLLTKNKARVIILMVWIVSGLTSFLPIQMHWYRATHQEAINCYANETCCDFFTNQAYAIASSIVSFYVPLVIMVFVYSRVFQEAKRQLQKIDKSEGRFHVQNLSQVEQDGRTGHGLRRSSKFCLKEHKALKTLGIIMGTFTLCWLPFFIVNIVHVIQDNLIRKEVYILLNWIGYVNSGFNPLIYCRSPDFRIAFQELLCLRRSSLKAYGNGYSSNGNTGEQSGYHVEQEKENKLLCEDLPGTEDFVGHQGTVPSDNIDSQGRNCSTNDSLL
Chain of human Adrenergic β1 (P08588 whole entry): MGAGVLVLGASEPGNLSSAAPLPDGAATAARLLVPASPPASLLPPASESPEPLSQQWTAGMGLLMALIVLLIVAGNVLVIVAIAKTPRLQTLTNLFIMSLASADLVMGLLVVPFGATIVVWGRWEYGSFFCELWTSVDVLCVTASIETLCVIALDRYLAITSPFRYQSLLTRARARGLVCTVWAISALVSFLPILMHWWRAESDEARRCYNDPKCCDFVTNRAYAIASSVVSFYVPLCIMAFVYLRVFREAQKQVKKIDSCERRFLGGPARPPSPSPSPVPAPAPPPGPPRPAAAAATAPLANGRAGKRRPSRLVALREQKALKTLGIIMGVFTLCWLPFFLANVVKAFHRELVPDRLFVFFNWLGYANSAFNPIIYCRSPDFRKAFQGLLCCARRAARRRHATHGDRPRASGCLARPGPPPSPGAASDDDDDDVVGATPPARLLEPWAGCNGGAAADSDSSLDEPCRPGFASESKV
Chain of human Opioid δ2 (DOP) (P41143 whole entry): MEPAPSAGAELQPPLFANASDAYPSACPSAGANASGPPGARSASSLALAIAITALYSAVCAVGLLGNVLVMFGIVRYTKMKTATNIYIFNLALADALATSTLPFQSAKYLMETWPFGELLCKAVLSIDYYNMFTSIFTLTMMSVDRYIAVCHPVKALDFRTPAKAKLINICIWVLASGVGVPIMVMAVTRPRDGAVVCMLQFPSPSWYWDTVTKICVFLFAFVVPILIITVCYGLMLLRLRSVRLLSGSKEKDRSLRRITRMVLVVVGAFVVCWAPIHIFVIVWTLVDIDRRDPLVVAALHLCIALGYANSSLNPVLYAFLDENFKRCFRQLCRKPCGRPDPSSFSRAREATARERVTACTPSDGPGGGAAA
Chain of human Bradykinin B1 (P46663 whole entry, canonical isoform): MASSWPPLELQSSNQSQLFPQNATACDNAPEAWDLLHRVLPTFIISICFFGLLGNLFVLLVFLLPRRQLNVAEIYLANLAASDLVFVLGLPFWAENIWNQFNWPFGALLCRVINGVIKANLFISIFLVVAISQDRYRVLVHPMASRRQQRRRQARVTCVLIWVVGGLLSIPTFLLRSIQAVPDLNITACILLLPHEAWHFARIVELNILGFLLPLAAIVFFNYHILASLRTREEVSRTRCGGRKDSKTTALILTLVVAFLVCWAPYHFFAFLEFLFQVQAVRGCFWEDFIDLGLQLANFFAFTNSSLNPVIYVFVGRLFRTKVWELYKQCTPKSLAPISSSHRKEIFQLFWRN
Chain of human Muscarinic M3 (P20309 whole entry): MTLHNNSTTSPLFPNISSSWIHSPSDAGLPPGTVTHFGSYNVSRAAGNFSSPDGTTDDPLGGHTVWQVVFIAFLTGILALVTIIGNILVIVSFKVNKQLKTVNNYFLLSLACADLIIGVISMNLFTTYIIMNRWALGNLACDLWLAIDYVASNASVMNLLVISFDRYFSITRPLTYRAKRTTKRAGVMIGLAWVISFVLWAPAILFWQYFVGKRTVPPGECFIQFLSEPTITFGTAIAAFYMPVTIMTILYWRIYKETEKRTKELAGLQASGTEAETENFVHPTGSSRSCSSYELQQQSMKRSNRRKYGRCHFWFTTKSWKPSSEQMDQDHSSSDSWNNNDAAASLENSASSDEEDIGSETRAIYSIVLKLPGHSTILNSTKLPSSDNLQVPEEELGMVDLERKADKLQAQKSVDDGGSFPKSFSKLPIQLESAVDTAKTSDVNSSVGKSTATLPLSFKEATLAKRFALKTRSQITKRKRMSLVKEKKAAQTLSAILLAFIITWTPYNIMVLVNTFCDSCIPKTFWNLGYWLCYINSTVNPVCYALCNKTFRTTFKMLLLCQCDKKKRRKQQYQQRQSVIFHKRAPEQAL
Chain of human Cannabinoid CB2 (P34972 whole entry): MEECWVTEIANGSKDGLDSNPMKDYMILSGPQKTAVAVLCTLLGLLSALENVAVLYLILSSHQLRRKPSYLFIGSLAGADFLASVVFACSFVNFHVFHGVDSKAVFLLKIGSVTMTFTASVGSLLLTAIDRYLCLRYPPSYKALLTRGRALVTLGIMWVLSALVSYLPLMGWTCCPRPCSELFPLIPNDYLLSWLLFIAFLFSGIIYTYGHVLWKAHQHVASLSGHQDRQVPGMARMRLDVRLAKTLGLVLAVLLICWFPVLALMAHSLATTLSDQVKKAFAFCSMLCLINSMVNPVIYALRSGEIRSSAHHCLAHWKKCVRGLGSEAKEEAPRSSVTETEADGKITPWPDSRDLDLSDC
Chain of human Dopamine D3 (P35462 whole entry): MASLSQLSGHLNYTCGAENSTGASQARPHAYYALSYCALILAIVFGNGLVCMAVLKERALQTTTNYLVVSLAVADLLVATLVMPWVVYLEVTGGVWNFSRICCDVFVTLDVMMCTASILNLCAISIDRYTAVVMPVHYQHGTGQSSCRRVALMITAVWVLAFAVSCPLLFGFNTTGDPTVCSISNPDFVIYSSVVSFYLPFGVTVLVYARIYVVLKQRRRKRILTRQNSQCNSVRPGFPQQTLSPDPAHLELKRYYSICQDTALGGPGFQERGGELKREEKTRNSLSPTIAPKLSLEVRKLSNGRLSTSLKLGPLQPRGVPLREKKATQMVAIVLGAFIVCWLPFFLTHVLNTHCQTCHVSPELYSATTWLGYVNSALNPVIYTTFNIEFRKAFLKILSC
Chain of human Dopamine D2S (P14416 other isoform, or with tags, fused parts or gaps): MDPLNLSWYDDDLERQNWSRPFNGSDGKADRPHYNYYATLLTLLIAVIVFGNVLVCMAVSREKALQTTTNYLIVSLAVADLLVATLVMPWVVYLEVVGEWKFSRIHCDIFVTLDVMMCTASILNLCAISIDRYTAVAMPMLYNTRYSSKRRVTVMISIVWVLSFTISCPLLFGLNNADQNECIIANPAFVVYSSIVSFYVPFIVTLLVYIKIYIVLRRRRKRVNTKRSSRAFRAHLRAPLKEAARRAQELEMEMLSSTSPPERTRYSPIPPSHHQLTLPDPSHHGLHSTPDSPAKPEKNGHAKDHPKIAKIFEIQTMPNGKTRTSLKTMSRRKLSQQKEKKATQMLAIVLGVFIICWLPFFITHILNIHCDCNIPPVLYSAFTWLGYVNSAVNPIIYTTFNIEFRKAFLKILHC
Chain of human Histamine H2 (P25021 whole entry): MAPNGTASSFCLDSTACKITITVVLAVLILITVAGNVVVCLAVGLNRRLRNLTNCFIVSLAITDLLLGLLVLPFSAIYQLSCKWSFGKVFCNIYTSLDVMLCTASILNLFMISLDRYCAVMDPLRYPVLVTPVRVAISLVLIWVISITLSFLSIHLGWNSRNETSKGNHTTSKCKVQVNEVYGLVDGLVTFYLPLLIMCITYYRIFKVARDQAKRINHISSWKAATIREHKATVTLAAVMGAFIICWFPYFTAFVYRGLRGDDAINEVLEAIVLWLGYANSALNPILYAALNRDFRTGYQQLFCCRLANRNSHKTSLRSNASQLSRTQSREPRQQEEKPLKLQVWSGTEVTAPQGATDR

SMILES: CCC(=O)c1sc(-c2cccc(F)c2)nc1[O-].[Na+] [Compound 2, sodium 2-(3-fluorophenyl)-5-propanoyl-1,3-thiazol-4-olate]
- fraction unbound [1]: 0.0129
- activity towards human Serotoninergic 5-HT1A [2]: inactive
- activity towards human Cannabinoid CB2 (human Cannabinoid CB2): inactive
- activity towards human Adrenergic β1 (human Adrenergic β1): inactive
- IC50 (hERG channel): > 1000 µM
- effect towards hERG channel (hERG channel): none effect
- IC50 (CYP2D6): > 30 µM
- activity towards human Opioid K (KOP) (human Opioid K (KOP)): inactive
- effect on cold allodynia (cold allodynia; [5]): significantly attenuated
- maximal activity, inhibition of cold allodynia (cold allodynia; [6]): about 50%
- IC50 (CYP1A2): > 30 µM
- activity towards human Dopamine D2S (human Dopamine D2S): inactive
- IC50 (human TRPM8): 0.028 µM
- fraction unbound [3]: 0.025
- IC50 (TRPV1): > 10 µM
- activity towards human Adrenergic β2 (human Adrenergic β2): inactive
- activity towards human NK1 (human NK1): inactive
- Vds ([4]; intravenous administration, IV 5 mg/kg): 1.78 L/kg
- CL [4, 7]: 6.41 mL/min/kg
- t1/2 [4, 7]: 2.94 h
- clearance [4, 8]: 6.81 mL/min/kg
- half-life [4, 8]: 3.01 h
- AUC [4, 9]: 26100 ng·h/mL
- Cmax [4, 9]: 10300 ng/mL
- Tmax [4, 9]: 0.25 h
- half-life [4, 9]: 2.94 h
- bioavailability ([4]; plasma, oral administration, PO 10 mg/kg vs IV 5 mg/kg): 100%
- effect on mechanical allodynia (mechanical allodynia; [5]): significantly attenuated
- maximal activity, inhibition of mechanical allodynia (mechanical allodynia; [6]): about 50%
- IC50 (CYP3A4): > 30 µM
- activity towards human Histamine H2 (human Histamine H2): inactive
- microsomal CLint (CLint (rat)): 29.4 µL/min/mg
- activity towards human Muscarinic M3 (human Muscarinic M3): inactive
- activity towards human Histamine H1 (human Histamine H1): inactive
- activity towards human Opioid NOP (ORL1) (human Opioid NOP (ORL1)): inactive
- activity towards human Bradykinin B1 (human Bradykinin B1): inactive
- pKa (physchem): 4.18
- effect towards any human cytochrome isoform (human cytochrome isoform): no effect
- activity towards human Adrenergic α1A (human Adrenergic α1A): inactive
- activity towards human Cannabinoid CB1 (human Cannabinoid CB1): inactive
- activity towards human Opioid δ2 (DOP) (human Opioid δ2 (DOP)): inactive
- activity towards human Muscarinic M2 (human Muscarinic M2): inactive
- IC50 (CYP2C9): > 30 µM
- activity towards human Opioid μ (MOP) (human Opioid μ (MOP)): inactive
- activity towards human Adrenergic α2A (human Adrenergic α2A): inactive
- Rat Plasma Stability (% remaining) (Rat Plasma Stability; at 30 min): 98.2%
- Rat Plasma Stability (% remaining) (Rat Plasma Stability; at 60 min): 80.3%
- activity towards human Dopamine D3 (human Dopamine D3): inactive
- IC50 (CYP2C19): > 30 µM
- activity towards human Bradykinin B2 (human Bradykinin B2): inactive
